ChEMBL document CHEMBL5532646, “Discovery of 4-(N-dithiobenzyl piperazine)-1,8-naphthalimide as a potent multi-target antitumor agent with good efficacy, limited toxicity, and low resistance” (Eur J Med Chem, 2024)
Active and inactive are the calls of the source. No cut-off for these calls is given here.

Assays:
T-24 [1] = assay: Downregulation of AKT1 level in human T24 cells at 2 to 8 uM incubated for 24 hrs by Western blot analysis; format: functional, cell-based; conditions: dose 2-8 µM
[2] = Toxicity in nude mouse model xenografted with human T24 cells assessed as pathological change in heart at 15 mg/kg, ip administered once every two days for 21 days; format: organism-based, T-24; conditions: in vivo, 504 h, time 21 day
T-24 [3] = assay: Induction of cell cycle arrest at G0/G1 phase in human T24 cells at 5 uM incubated for 24 hrs by flow cytometry (reference value: 75.31 %); format: functional
T-24 [4] = assay: Induction of autophagy in human T24 cells assessed as decrease in P62 level at 2 to 8 uM incubated for 24 hrs by Western blot analysis; format: functional, cell-based; conditions: dose 2-8 µM
T-24 [5] = assay: Induction of apoptosis in human T24 cells assessed as increase in Bax level at 2 to 8 uM incubated for 24 hrs by Western blot analysis; format: functional, cell-based; conditions: dose 2-8 µM
T-24 [6] = assay: Anti-migratory activity against human T24 cells at 5 uM by wound healing assay; format: functional, cell-based; conditions: time <= 48.0 hrs, TDE = time-dependent effect
T-24 [7] = assay: Induction of cell cycle arrest at G2/M phase in human T24 cells at 8 uM incubated for 24 hrs by flow cytometry (reference value: 12.30 %); format: functional
T-24 [8] = assay: Induction of cell cycle arrest at G0/G1 phase in human T24 cells at 8 uM incubated for 24 hrs by flow cytometry (reference value: 75.31 %); format: functional
T-24 [9] = assay: Induction of apoptosis in human T24 cells at 5 uM incubated for 24 hrs by KEGG analysis; format: functional, cell-based
T-24 [10] = assay: Effect on cell cycle pathway in human T24 cells at 5 uM incubated for 24 hrs by KEGG analysis; format: functional, cell-based
T-24 [11] = assay: Induction of cell cycle arrest in human T24 cells assessed as increase in p21 level at 2 to 8 uM by Western blot analysis; format: functional, cell-based; conditions: dose 2-8 µM
T-24 [12] = assay: Induction of autophagy in human T24 cells at 5 uM incubated for 24 hrs by KEGG analysis; format: functional, cell-based
T-24 [13] = assay: Induction of apoptosis in human T24 cells assessed as increase in Bad level at 2 to 8 uM incubated for 24 hrs by Western blot analysis; format: functional, cell-based; conditions: dose 2-8 µM
MGC-803 = assay: Antiproliferative activity against human MGC-803 cells incubated for 48 hrs by MTT assay; format: functional, cell-based; conditions: MGC-803, 48 h
[14] = Toxicity in nude mouse model xenografted with human HepG2 cells assessed as pathological change in lung at 15 mg/kg, ip administered once every two days for 21 days; format: organism-based; conditions: in vivo, 504 h, time 21 day
HUVEC = assay: Antiproliferative activity against HUVEC cells incubated for 48 hrs by MTT assay; format: functional, cell-based; conditions: Homo sapiens
T-24 [15] = assay: Downregulation of mTOR level in human T24 cells at 2 to 8 uM incubated for 24 hrs by Western blot analysis; format: functional, cell-based; conditions: dose 2-8 µM
T-24 [16] = assay: Antiproliferative activity against human T24 cells xenografted in nude mouse model assessed as tumor inhibition rate at 15 mg/kg, ip administered once every two days for 21 days relative to control; format: functional; conditions: T-24, 504 h, time 21 day
T-24 [17] = assay: Induction of cell cycle arrest at S phase in human T24 cells at 8 uM incubated for 24 hrs by flow cytometry (reference value: 12.39 %); format: functional
T-24 [18] = assay: Induction of cell cycle arrest at S phase in human T24 cells at 2 uM incubated for 24 hrs by flow cytometry (reference value: 12.39 %); format: functional
T-24 [19] = assay: Induction of ferroptosis in human T24 cells assessed as increase in superoxide anion level at 5 uM incubated for 24 hrs by DHE probe based analysis; format: functional, cell-based
T-24 [20] = assay: Upregulation of fatty acid metabolism in human T24 cells at 5 uM incubated for 24 hrs by KEGG analysis; format: functional, cell-based
T-24 [21] = assay: Induction of cell cycle arrest at G0/G1 phase in human T24 cells at 2 uM incubated for 24 hrs by flow cytometry (reference value: 75.31 %); format: functional

## CN(C)CCN1C(=O)c2cccc3c(N4CCN(C(=S)SCc5ccccc5)CC4)ccc(c23)C1=O
T-24 [1]
  Activity: Active
[2]
  Activity: Non-Toxic
T-24 [3]
  Activity: 51.06%
T-24 [4]
  Activity: Active
T-24 [5]
  Activity: Active
T-24 [6]
  Activity: Tde
T-24 [7]
  Activity: 16.61%
T-24 [8]
  Activity: 70.18%
T-24 [9]
  Activity: Active
T-24 [10]
  Activity: Active
T-24 [11]
  Activity: Active
T-24 [12]
  Activity: Active
T-24 [13]
  Activity: Active
MGC-803
  IC50: 5.23 µM
[14]
  Activity: Non-Toxic
HUVEC
  IC50: 16.7 µM
T-24 [15]
  Activity: Active
T-24 [16]
  inhibition in vivo at 15 mg/kg: 56.3%
T-24 [17]
  Activity: 13.21%
T-24 [18]
  Activity: 36.93%
T-24 [19]
  Activity: Active
T-24 [20]
  Activity: Active
T-24 [21]
  Activity: 42.37%
